Experimental data reported in patent publication US20080311122A1, “Antagonists of Hmgb1 and/or Rage and Methods of Use Thereof” (Medimmune, LLC, priority 2005, published 2008).
Entries after “also recorded” stand apart in the source; their conditions may differ.

Key:
pDCs = test: Stimulation of pDCs isolated from bone marrow, cytokine ELISA; assay type: cell-based, mouse; settings: 24 hr
Text: Mice and Bone Marrow Cells: C57BL/6 mice were obtained from The Jackson Laboratories and maintained in specific pathogen-free conditions in conventional animal facilities at MedImmune, Inc. TLR9 deficient and MyD88 deficient mice and their litter mate controls were maintained in animal facility of University of Massachusetts Medical School. RAGE deficient mice generated were obtained from Heidelburg Germany and maintained at the University of Massachusetts Medical School. Fresh bone marrow cells were collected and pDCs were isolated from bone marrow cells using miltenyibiotec's plasmacytoid dendritic cell isolation kit. pDCs were re-suspended in Opti-MEM (Invitrogen) and stimulated […] cell/well for 24 hr and cytokine level in the supernatant was measured by ELISA.

CpG A DNA = test: Tryptophan emission for CpG-A binding to HMGB1; settings: intrinsic tryptophan fluorescence; read-out: apparent Kd for CpG A DNA
Description: Tryptophan emission for CpG-A binding to HMGB1: Fluorescence titrations and spectra of HMGB-1 were carried out at 25° C. with a SPEX Fluoromax-3 spectrofluorimeter, monitoring the HMGB-1 intrinsic tryptophan emission at 347 nm (8 nm bandwidth) with 280 nm excitation (3 nm bandwidth) in a masked capped dual-pathlength (0.2×1.0 cm) quartz cell (Hellma Cells, Inc., Jamaica, N.Y.) upon stepwise addition of CpG-A (0.5 mM) to a 1.7 μM solution of HMGB-1 in 1:10 Dulbecco Phosphate Buffered Saline (PBS) solution (Invitrogen, Carlsbad, Calif.). Complex formation between HMGB-1 and the nucleic acid was monitored by the change in the initial fluorescence of the protein. HMGB-1 fractional saturation was inferred from the ratio of observed fluorescence change to maximal change (at saturation), Flim, for each of the nucleic acid additions. Binding affinity was calculated from graphs of relative fluorescence intensity versus [nucleic acid base]/[protein].The occluded binding site size (n) was derived from the intersection of the extrapolated initial slope with the limiting fluorescence plateau in the equilibrium binding isotherms. The measurements for assessment of Tryptophan emission are reviewed in detail in Lakowicz, 2000, Photochem. Photobiol. 72, 421-437.

mouse macrophages = test: TNF-a induction in mouse macrophages; assay type: cell-based
Description: TNF-a Induction: To examine mRNA levels macrophages were derived from mouse bone marrow using M-CSF. Macrophages were then stimulated by LPS, E. coli produced recombinant HMGB1 or HMGB1 purified from bovine thymus for indicated length of time and mRNA is measured by Taqman. To examine protein levels thioglycant activated mouse peritoneal macrophages were stimulated with 10 μg/mL of HMGB1 purified from bovine thymus or recombinant HMGB1 generated from E. coli for 24 hr. Cytokines in the supernatant were measured by ELISA.

[1] = system: native activated HMG1 stimulated IL-6 release from human PBMCs; test: Inhibition of cytokine release from PBMCs, native activated HMG1; assay type: cell-based
Description: Inhibition of Cytokine Release: Human peripheral blood mononuclear cells (PBMCs) were isolated from the peripheral blood of healthy volunteers by a density gradient centrifugation. Freshly drawn heparinized whole blood was mixed with two volume of PBS. The diluted blood was gently layered on the surface of Histopaque-1077 (Sigma-Aldrich) and centrifuged at 400×g, at RT for 30 minute. PBMCs were collected from the interface between the plasma and the density gradient solution. After washing in PBS 3×, the purified PBMCs were resuspended in RPMI-1640 medium (GIBCO BRL) containing 100 U/ml penicillin, 100 μg/ml streptomycin and […] β-mercaptoethanol. 1×10^5 of cells was added in each well of 96-well cell culture plates. […]
The culture media were analyzed for inflammatory cytokines using Beadlyte human multi-cytokine flex kit from Upstate by Luminex 100 (Luminex Corp.). Proinflammatory cytokines TNF-α, IL-6, IL-1β and IL-12 (p40) were measured for cells stimulated with recombinant HMG1. In addition, TNF-α, IL-6, IL-1β and IL-8 were measured for cells stimulated with native activated HMG1.
Cytokine release data is presented as mean of triplicates±standard deviations. […] It was calculated by PRISM program.

[2] = system: CpG2216+thymus HMG1 induced IFN-a release (TLR9 signaling); test: Inhibition of HMG1 mediated enhancement of TLR9 signaling, CpG2216 + thymus HMG1 in bone marrow cells; assay type: cell-based; settings: mouse bone marrow cells
Description: HMGB1+TLR Ligand: Freshly isolated bone marrow cells were stimulated with TLR ligands (TLR3:PolyIC@5 μg/mL; TLR4:LPS@2.5 ng/mL; TLR5:flagellin@0.25 μg/mL; TLR7:polyU@4 μg/mL or R837@5 μg/mL; TLR9:CpG2216@1 μM) with or without presence of thymus HMGB1 (10 μg/mL) for 24 hr. Cytokines in the supernatant were measured by ELISA.
Inhibition of HMG1 Mediated Enhancement of TLR Signaling: Freshly isolated bone marrow cells were stimulated with TLR9 ligand CpG2216 (0.3 μM) and thymus HMGB1 (10 μg/mL) in the presence of different concentration of the anti-HMGB1 mAb E11 or control human IgG for 24 hr and IFN-a in the supernatant was measured by ELISA. CpG2216, HMGB1 and nonstimulatory DNA were used alone or in combination as controls for the assay.

[3] = system: LPS+HMG1 induced TNF-a release (TLR4 signaling); test: Inhibition of HMG1 mediated enhancement of TLR4 signaling, LPS+HMG1 TNF-a release; assay type: cell-based, mouse
AM14 B cells [4] = test: DNA immune complex and AM14 cell binding assay; assay type: cell-based, mouse
Description: DNA immune complex and AM14 cell binding assay DNA immune complexes were preformed by mixing spent culture supernatants with 15 μg/ml of PL2-3 (anti-nucleosome IgG2a). AM14 FcγRIIB−/− cells were incubated with a mixture of spent culture supernatants (CML sup.) and 15 μg/ml of PL2-3 (anti-nucleosome IgG2a) on ice. To analyze the effect of RAGE-Fc on the ability of the complexes to bind AM14 B cells, RAGE-Fc (or Fc control) was added to the immune complexes for an additional 2 h on ice. The chromatin immune complexes, or antibody alone, were added to 0.5×10^6 splenic purified AM14 FcγRIIB−/− B. HMGB1 in complexes was detected using an anti-HMGB1-Biotinylated antibody (MedImmune, Inc.) and PL2-3 was detected by an anti-IgG2a-FITC.

AM14 B cells [5] = test: AM14 proliferation assay; assay type: cell-based, mouse
Description: AM14 proliferation assay: Purified AM14 B cells were preincubated with RAGE-Fc or control human IgG1 for 30 min at 37° C., and stimulated with 0.1 μg/ml of PL2-3 for 24 h at 37° C. Cells were then pulsed with [^3H]thymidine for 6 h.

[6] = system: lupus plasma induced IFIT1 mRNA in human PBMCs; test: IFIT1 mRNA induction in PBMCs by lupus plasma; assay type: cell-based; settings: 20% lupus plasma
Description: Human Cell Culture and Isolation: Fresh PBMCs from healthy donors were prepared by Ficoll-hypaque fractionation and cultured at a density of 2×10^5Cells/0.1 ml in 96-well flat-bottomed plates in culture medium. 20% of lupus plasma was incubated with PBMC for 24 hrs. Some wells included antibodies anti-HMGB1, RAGE Fc or human IgG together with lupus plasma. After 24 hrs, PBMCs were collected and lysed. Total RNA was purified using the 96-well Total RNA Purification Kit (Gentra, Minneapolis, Minn.). 11 μl of this RNA was reverse-transcribed to cDNA in a 20 μl reaction using SuperScript III RNase H-Reverse Transcriptase (Invitrogen, Carlsbad, Calif.). cDNA obtained from each sample was diluted 1:[…] was amplified in a 25 μl real-time PCR reaction using 0.4 μM of sense and antisense primers and the 2×iQ SYBR Green Supermix (Bio-Rad, Hercules, Calif.). GAPDH was used as a housekeeping gene control. Primer sequences for IFIG and GAPDH were: IFIT1 forward, 5′-[…]-3′ (SEQ ID NO: 111); IFIT1 reverse, 5′-AGTCAGCAGCCAGTCTCAG-3′ (SEQ ID NO: 112); GAPDH forward, 5′-CAACGGATTTGGTCGTATT-3′ (SEQ ID NO: 113); GAPDH reverse, 5′-[…]-3′ (SEQ ID NO: 114).

5′-GGGGGACGATCGTCGGGGGG-3′ [CpG DNA] was tested. Which IFN-α production (pDCs) did it give?
The IFN-α production was 32 ± 5 pg/mL.

And the TNF-α production (pDCs)?
The TNF-α production was 43 ± 5 pg/mL.

How did the Kd (CpG A DNA) turn out when “HMGB1: HMGB1 purified from bovine thymus” was run?
Its Kd is 70 nM.

What about the IFN-α production (pDCs) of the same substance?
The IFN-α production was “ineffective”.

What about the “induction of TNF-a mRNA levels” value (mouse macrophages; 2 hours, listed as native HMG1) of the same substance?
The value was roughly 30 fold.

What about the “induction of TNF-a mRNA levels” value (mouse macrophages; 2 hours, listed as thymus HMG1) of the same substance?
Its value is “roughly 30 fold”.

And the “induction of TNF-a mRNA levels” value (mouse macrophages; 8 hour)?
Its value is roughly 15 fold.

What about the “increase in TNF-a protein levels” value (mouse macrophages; 24 hours, supernatant) of the same substance?
The value was “no induction”.

Which “induction of TNF-a mRNA levels” value (mouse macrophages; 2 hours) does the source give for “lipopolysaccharide [LPS, reference compound]” here?
Its value is roughly 66 fold.

What about the “induction of TNF-a mRNA levels” value (mouse macrophages; 8 hour) of the same substance?
The value was roughly 7 fold.

How did the “block of IL-6 release induced by native activated HMG1” value [1] turn out when “RAGE-Fc: RAGE-Fc fusion protein (soluble RAGE), RAGE antagonist” was run?
Its value is “able to block IL-6 released induced by native activated HMG1”.

And the “inhibition of IFN-a release induced by CpG + thymus HMG1” value (“inhibition … by CpG + thymus HMG1” below) [2]?
Its value is “inhibit IFN-a release”.

And the “inhibition … by CpG + thymus HMG1” value ([2]; listed as RAGE/Fc)?
Its value is “significantly blocked CpG/HMGB1 complex induced IFN-α”.

And the “inhibition of IFN-a release induced by CpG alone” value ([2]; listed as RAGE/Fc)?
The value was “did not block CpG-A induced IFN-α production”.

And the “inhibition … by CpG + thymus HMG1” value ([2]; listed as Rage/Fc)?
Its value is “to a less extent; also recorded: inhibited the release of INF-a induced by CpG2216+thymus HMG1”.

What about the “inhibition of IFN-a release induced by CpG alone” value ([2]; listed as Rage/Fc) of the same substance?
The value was “Neither E11, G4 or Rage/Fc inhibited”.

What about the “inhibition of TNF-a release induced by LPS+HMG1” value [3] of the same substance?
Its value is “inhibits the release of TNF-a induced by LPS+HMG1; also recorded: could be blocked; also recorded: inhibit the release of TNFa induced by LPS+HMG1”.

What about the “inhibition of binding of chromatin/DNA immune complexes to AM14 B cells” value (AM14 B cells [4]) of the same substance?
Its value is “blocks binding of chromatin IC to AM14 B cells; also recorded: inhibited binding of HMGB1-containing DNA immune complexes to the surface of B cells”.

What about the “effect on TLR2, TLR4 ligand induced proliferation or BCR mediated B cell activation” value (AM14 B cells [5]) of the same substance?
Its value is “had no effect”.

What about the “inhibition of DNA immune complex (PL2-3) dependent proliferation of AM14 B cells” value (AM14 B cells [5]; thymidine incorporation) of the same substance?
Its value is “reduced proliferation; also recorded: markedly inhibited PL2-3-dependent proliferation of AM14 B cells”.

And the “inhibition of induction of IFIT1 mRNA by lupus plasma” value [6]?
The value was “approx 75%”.
